pKd: −log10 of the molar value. Where two headings read alike, the source gives them in different places.
Columns and labels:
[1] = molecular target: calcium binding site of GBP (Escherichia coli, UniProt P0AEE5); conditions: Vyas et al. 1989, cited from earlier work
[2] = molecular target: GBP labeled with D-22 (Escherichia coli, UniProt P0AEE5); assay: Steady-state fluorescence of D-22-labeled (dansylated) GBP; format: binding, E. coli; conditions: addition of 1.6×10^−4 M sugar; protein to fluorophore 1:50, 1:100, 1:200
GBP labeled with D-22, sequence (P0AEE5 24-332 limits assumed): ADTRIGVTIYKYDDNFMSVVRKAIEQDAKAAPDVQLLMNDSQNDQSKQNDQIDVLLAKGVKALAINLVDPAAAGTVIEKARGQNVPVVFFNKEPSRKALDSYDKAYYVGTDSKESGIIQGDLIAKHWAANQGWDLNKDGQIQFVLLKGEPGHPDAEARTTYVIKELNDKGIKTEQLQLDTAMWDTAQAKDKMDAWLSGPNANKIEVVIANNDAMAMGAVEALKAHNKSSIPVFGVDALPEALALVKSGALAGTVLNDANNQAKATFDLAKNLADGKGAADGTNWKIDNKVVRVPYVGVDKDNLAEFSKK
Procedure: Labeling GBP with D-22. GBP was dialysed three times against 0.1 M NaHCO3, pH 9.0. Three conjugation reactions with protein to fluorophore mole ratios of 1:50, 1:100, and 1:200 were carried out. Three microvials, each containing GBP, were placed in an ice bath. The fluorophore was added to the vials in small increments while the solution was being stirred. The mixture was allowed to react in the dark at 4° C. for 1 h. To eliminate the excess of unbound D-22, size exclusion chromatography was employed. A D-Salt Polyacrylamide 6000 desalting column was equilibrated with 10 mM Tris-HCl, pH 8.0. The conjugates were loaded onto the column. Elution of the labeled protein was conducted with the equilibration buffer and the conjugate finally dialysed three times against 10 mM Tris-HCl, pH 8.0.
Steady-state fluorescence studies of the labeled GBP. Fluorescence measurements were conducted with sample volumes of 1.5 mL and in quartz cuvettes. After the addition of 30 μL of D-(+)-galactose and D-(+)-glucose to the conjugate, the solution was allowed to incubate for 15 min at 4° C. while mixing at 400 rpm. The excitation and emission monochromator slit widths were set at 2 mm. The excitation wavelength was 350 nm and emission was detected at 475 nm.

[3] = molecular target: GBP mutant M182C (Met182Cys) (Escherichia coli, UniProt P0AEE5, M205C); assay: Steady-state fluorescence of fluorophore-labeled GBP mutant M182C on ligand binding; parameters: species or system E. coli
GBP mutant M182C (Met182Cys), sequence (P0AEE5 24-332 M205C): as the sequence (P0AEE5 24-332 limits assumed) above, with M182C counted along it
Procedure: Labeling the mutants of GBP with fluorescent probes. The mutant protein was first dialysed three times against either 10 mM Tris-HCl, 1 mM DTT, 0.2 mM CaCl2, pH 8.0 (for reaction with MDCC) or 10 mM HEPES, 1 mM DTT, 0.2 mM CaCl2, pH 7.4 (for reaction with acrylodan, 1,5-IAEDANS, or IANBD ester). DTT was present in the buffers to reduce any disulfide linkages that may have formed between two protein molecules. The protein was then dialysed three times against the respective buffers (with no DTT) to remove excess of the reducing agent. For the conjugation reaction, a molar ratio of fluorophore to protein of 5:1 was employed. The fluorophores were added slowly to the mutants of GBP (μM concentrations) so as to allow the cysteine residue on all the protein molecules to have an equal opportunity to react with the fluorophore. The solution was stirred constantly in a glass reaction vessel and in the dark for 4 h at 4° C. […]
Steady-state fluorescence studies of the fluorophore-labeled mutant proteins. […] The concentrations of labeled proteins used in the steady-state fluorescence studies were in the 1×10^−7 M range. […] The samples were analyzed in the spectrofluorometer under the aforementioned parameters. Calibration plots were obtained by relating the average fluorescence change with the concentration of glucose or galactose in the sample.

[4] = molecular target: GBP (Escherichia coli, UniProt P0AEE5); conditions: Miller et al. 1983; read-out: dissociation constants, Kd; cited from earlier work
GBP, sequence (P0AEE5 24-332): as the sequence (P0AEE5 24-332 limits assumed) above

[5] = molecular target: GBP mutant G148C (Gly148Cys) (Escherichia coli, UniProt P0AEE5, G171C); format: binding, E. coli
GBP mutant G148C (Gly148Cys), sequence (P0AEE5 24-332 G171C limits assumed): as the sequence (P0AEE5 24-332 limits assumed) above, with G148C counted along it
Procedure: (§1) Labeling the mutants of GBP with fluorescent probes. The mutant protein was first dialysed three times against either 10 mM Tris-HCl, 1 mM DTT, 0.2 mM CaCl2, pH 8.0 (for reaction with MDCC) or 10 mM HEPES, 1 mM DTT, 0.2 mM CaCl2, pH 7.4 (for reaction with acrylodan, 1,5-IAEDANS, or IANBD ester). DTT was present in the buffers to reduce any disulfide linkages that may have formed between two protein molecules. The protein was then dialysed three times against the respective buffers (with no DTT) to remove excess of the reducing agent. For the conjugation reaction, a molar ratio of fluorophore to protein of 5:1 was employed. The fluorophores were added slowly to the mutants of GBP (μM concentrations) so as to allow the cysteine residue on all the protein molecules to have an equal opportunity to react with the fluorophore. The solution was stirred constantly in a glass reaction vessel and in the dark for 4 h at 4° C. (with MDCC and acrylodan) or for 2-3 h at RT (with 1,5-IAEDANS or IANBD ester). The conjugated protein was separated from the free fluorophore by running the sample through a Sephadex G-25 column and eluting with the respective buffer.
(§2) Steady-state fluorescence studies of the fluorophore-labeled mutant proteins. The excitation and emission monochromator slit widths were both set at 2 mm. The excitation and emission wavelengths for MDCC, acrylodan, 1,5-IAEDANS, and IANBD ester were 425 nm and 475 nm, 382 nm and 509 nm, 336 nm and 490 nm, and 472 nm and 536 nm, respectively. All data were obtained at RT using quartz cuvettes with sample volumes of 1.5-2 mL. The concentrations of labeled proteins used in the steady-state fluorescence studies were in the 1×10^−7 M range. The conjugates were incubated with various concentrations of glucose and galactose for 15-20 min at RT on a shaker at 400 rpm. The samples were analyzed in the spectrofluorometer under the aforementioned parameters. Calibration plots were obtained by relating the average fluorescence change with the concentration of glucose or galactose in the sample.

[6] = molecular target: GBP mutant H152C (His152Cys) (Escherichia coli, UniProt P0AEE5, H175C); format: binding, E. coli
GBP mutant H152C (His152Cys), sequence (P0AEE5 24-332 H175C limits assumed): as the sequence (P0AEE5 24-332 limits assumed) above, with H152C counted along it
Procedure: as §1, §2

calcium binding site of GBP, sequence (P0AEE5 24-332 limits assumed): as the sequence (P0AEE5 24-332 limits assumed) above

## [Tb+3] [terbium]
[1]
  dissociation rate: 0.001 s⁻¹

## O=C[C@H](O)[C@@H](O)[C@@H](O)[C@H](O)CO [Galactose, D-(+)-galactose]
[2]
  change of fluorescence signal of dansylated GBP: quenching of the fluorescence signal
[3]; M182C labeled with Acrylodan
  % quenching: 5%
[3]; M182C labeled with MDCC
  % quenching: 6%
[4]
  pKd: 3.40
[5]; G148C labeled with IAEDANS
  % quenching: 7%
[5]; G148C labeled with MDCC
  % quenching: 16%
[6]; H152C labeled with IANBD
  % quenching: 4%
[6]; H152C labeled with MDCC
  % quenching: 19%

## [Ca+2] [calcium]
[1]; read-out: dissociation constant
  pKd: 5.70
